Measured values: the supplement of paper PMC6045584
± gives the standard deviation of the averaged measurements.

Assays:
MDV3100 [1] = compound: T1, CNC(=O)c1ccc(N2C(=S)N(c3ccc(C#N)c(C(F)(F)F)c3)C(=O)C2(C)C)cc1F [MDV3100]; test: area under dose-response curve of surviving fraction (unscaled, Aref=0) (surviving fraction x log10(nM)); higher = more resistant; conditions: exposure time: 5 days; dose range 0.5-1000 nM
Outline: (§1)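 Inhibitor was applied to tumour cell lines at eight concentrations (0.5 to 1000 nM) for five days in 384-well plates. Luminescence from CellTiter-Glo, scaled to DMSO-only wells, gave surviving fractions in three screens per line, and these were fitted by 3-parameter logistic regression with the drc R package. The area under the curve is an unscaled activity area. Aref was 0, and dose was on a log10 scale.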

SAPACITABINE [2] = compound: T2, CCCCCCCCCCCCCCCC(=O)Nc1ccn([C@@H]2O[C@H](CO)[C@@H](O)[C@@H]2C#N)c(=O)n1 [SAPACITABINE]; test: as above; conditions: exposure time: 5 days; dose range 0.5-1000 nM
Outline: as §1

CANERTINIB [3] = compound: T3, C=CC(=O)Nc1cc2c(Nc3ccc(F)c(Cl)c3)ncnc2cc1OCCCN1CCOCC1 [CANERTINIB]; test: as above; conditions: exposure time: 5 days; dose range 0.5-1000 nM
Outline: as §1

[4] = compound: Cn1cc(C2=Nc3cc(NC(=O)C(N)C4CCCCC4)cc4c3C2=CNNC4=O)cn1; test: as above; conditions: exposure time: 5 days; dose range 0.5-1000 nM
Outline: as §1

TIOGUANINE [5] = compound: T4, Nc1nc2[nH]cnc2c(=S)[nH]1 [TIOGUANINE]; test: as above; conditions: exposure time: 5 days; dose range 0.5-1000 nM
Outline: as §1

AFATINIB [6] = compound: T5, CN(C)C/C=C/C(=O)Nc1cc2c(Nc3ccc(F)c(Cl)c3)ncnc2cc1O[C@H]1CCOC1 [AFATINIB]; test: as above; conditions: exposure time: 5 days; dose range 0.5-1000 nM
Outline: as §1

SNX-5422 [7] = compound: T6, CC1(C)CC(=O)c2c(C(F)(F)F)nn(-c3ccc(C(N)=O)c(N[C@H]4CC[C@H](OC(=O)CN)CC4)c3)c2C1 [SNX-5422]; test: as above; conditions: exposure time: 5 days; dose range 0.5-1000 nM
Outline: as §1

BI-2536 [8] = compound: T7, CC[C@@H]1C(=O)N(C)c2cnc(Nc3ccc(C(=O)NC4CCN(C)CC4)cc3OC)nc2N1C1CCCC1 [BI-2536]; test: as above; conditions: exposure time: 5 days; dose range 0.5-1000 nM
Outline: as §1

MDV3100 [9] = compound: T1, MDV3100; test: surviving fraction relative to DMSO-only wells; higher = less growth inhibition; conditions: exposure time: 5 days
Outline: (§2)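 Inhibitors were tested at 0.5, 1, 5, 10, 50, 100, 500 and 1000 nM, applied continuously for five days beginning 24 hours after log-phase tumour cells were seeded at 250–500 per well in 384-well plates. CellTiter-Glo luminescence served as the viability measure, expressed as surviving fraction against the median of DMSO-only wells. Each line, screened three times, was kept only with replicate Pearson r >0.7 and median Z' >0.3.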

SAPACITABINE [10] = compound: T2, SAPACITABINE; test: as above; conditions: exposure time: 5 days
Outline: as §2

CANERTINIB [11] = compound: T3, CANERTINIB; test: as above; conditions: exposure time: 5 days
Outline: as §2

[12] = compound: Cn1cc(C2=Nc3cc(NC(=O)C(N)C4CCCCC4)cc4c3C2=CNNC4=O)cn1; test: as above; conditions: exposure time: 5 days
Outline: as §2

TIOGUANINE [13] = compound: T4, TIOGUANINE; test: as above; conditions: exposure time: 5 days
Outline: as §2

AFATINIB [14] = compound: T5, AFATINIB; test: as above; conditions: exposure time: 5 days
Outline: as §2

SNX-5422 [15] = compound: T6, SNX-5422; test: as above; conditions: exposure time: 5 days
Outline: as §2

BI-2536 [16] = compound: T7, BI-2536; test: as above; conditions: exposure time: 5 days
Outline: as §2

With SCC36 HEADNECK the “area under dose-response curve” value (MDV3100 [1]) was 3.27, the “area under dose-response curve” value (SAPACITABINE [2]) was 2.66 and the “area under dose-response curve” value (CANERTINIB [3]) was 2.1. The “area under dose-response curve” value [4] was 2.54, the “area under dose-response curve” value (TIOGUANINE [5]) was 3.72 and the “area under dose-response curve” value (AFATINIB [6]) was 1.53. The “area under dose-response curve” value (SNX-5422 [7]) was 2.06, the “area under dose-response curve” value (BI-2536 [8]) was 1.03 and the surviving fraction (MDV3100 [9]; 0.5 nM) was 0.992 ± 0.091. It also gave a surviving fraction (MDV3100 [9]; 1 nM) of 0.955 ± 0.1, a surviving fraction (MDV3100 [9]; 5 nM) of 0.957 ± 0.065 and a surviving fraction (MDV3100 [9]; 10 nM) of 1.11 ± 0.068. The surviving fraction (MDV3100 [9]; 50 nM) was 1.09 ± 0.028, the surviving fraction (MDV3100 [9]; 100 nM) was 1.03 ± 0.059 and the surviving fraction (MDV3100 [9]; 500 nM) was 0.924 ± 0.051. It also gave a surviving fraction (MDV3100 [9]; 1000 nM) of 0.907 ± 0.099, a surviving fraction (SAPACITABINE [10]; 0.5 nM) of 0.776 ± 0.055 and a surviving fraction (SAPACITABINE [10]; 1 nM) of 0.793 ± 0.048. The surviving fraction (SAPACITABINE [10]; 5 nM) was 0.815 ± 0.05, the surviving fraction (SAPACITABINE [10]; 10 nM) was 0.797 ± 0.11 and the surviving fraction (SAPACITABINE [10]; 50 nM) was 1.02 ± 0.16. The surviving fraction (SAPACITABINE [10]; 100 nM) was 0.939 ± 0.092, the surviving fraction (SAPACITABINE [10]; 500 nM) was 0.737 ± 0.064 and the surviving fraction (SAPACITABINE [10]; 1000 nM) was 0.577 ± 0.0091. It also gave a surviving fraction (CANERTINIB [11]; 0.5 nM) of 0.715 ± 0.044, a surviving fraction (CANERTINIB [11]; 1 nM) of 0.747 ± 0.059 and a surviving fraction (CANERTINIB [11]; 5 nM) of 0.645 ± 0.054. It also gave a surviving fraction (CANERTINIB [11]; 10 nM) of 0.753 ± 0.016, a surviving fraction (CANERTINIB [11]; 50 nM) of 0.741 ± 0.039 and a surviving fraction (CANERTINIB [11]; 100 nM) of 0.747 ± 0.045. For the same test system, the surviving fraction (CANERTINIB [11]; 500 nM) was 0.328 ± 0.023, the surviving fraction (CANERTINIB [11]; 1000 nM) was 0.329 ± 0.035 and the surviving fraction ([12]; 0.5 nM) was 0.976 ± 0.11. It also gave a surviving fraction ([12]; 1 nM) of 0.979 ± 0.038, a surviving fraction ([12]; 5 nM) of 1.07 ± 0.062 and a surviving fraction ([12]; 10 nM) of 1.05 ± 0.12. The surviving fraction ([12]; 50 nM) was 0.753 ± 0.026, the surviving fraction ([12]; 100 nM) was 0.678 ± 0.045 and the surviving fraction ([12]; 500 nM) was 0.282 ± 0.037. For the same test system, the surviving fraction ([12]; 1000 nM) was 0.19 ± 0.025, the surviving fraction (TIOGUANINE [13]; 0.5 nM) was 1.03 ± 0.034 and the surviving fraction (TIOGUANINE [13]; 1 nM) was 1.09 ± 0.028. For the same test system, the surviving fraction (TIOGUANINE [13]; 5 nM) was 1.16 ± 0.074, the surviving fraction (TIOGUANINE [13]; 10 nM) was 1.18 ± 0.078 and the surviving fraction (TIOGUANINE [13]; 50 nM) was 1.24 ± 0.082. For the same test system, the surviving fraction (TIOGUANINE [13]; 100 nM) was 1.12 ± 0.091, the surviving fraction (TIOGUANINE [13]; 500 nM) was 1.13 ± 0.11 and the surviving fraction (TIOGUANINE [13]; 1000 nM) was 1.06 ± 0.1. The surviving fraction (AFATINIB [14]; 0.5 nM) was 0.926 ± 0.088, the surviving fraction (AFATINIB [14]; 1 nM) was 0.719 ± 0.061 and the surviving fraction (AFATINIB [14]; 5 nM) was 0.523 ± 0.037. For the same test system, the surviving fraction (AFATINIB [14]; 10 nM) was 0.457 ± 0.031, the surviving fraction (AFATINIB [14]; 50 nM) was 0.418 ± 0.027 and the surviving fraction (AFATINIB [14]; 100 nM) was 0.376 ± 0.029. For the same test system, the surviving fraction (AFATINIB [14]; 500 nM) was 0.264 ± 0.0053, the surviving fraction (AFATINIB [14]; 1000 nM) was 0.149 ± 0.017 and the surviving fraction (SNX-5422 [15]; 0.5 nM) was 1.05 ± 0.13. It also gave a surviving fraction (SNX-5422 [15]; 1 nM) of 1.11 ± 0.086, a surviving fraction (SNX-5422 [15]; 5 nM) of 1.19 ± 0.13 and a surviving fraction (SNX-5422 [15]; 10 nM) of 1.19 ± 0.089. It also gave a surviving fraction (SNX-5422 [15]; 50 nM) of 0.434 ± 0.067, a surviving fraction (SNX-5422 [15]; 100 nM) of 0.27 ± 0.041 and a surviving fraction (SNX-5422 [15]; 500 nM) of 0.0367 ± 0.0064. The surviving fraction (SNX-5422 [15]; 1000 nM) was 0.039 ± 0.004, the surviving fraction (BI-2536 [16]; 0.5 nM) was 0.945 ± 0.088 and the surviving fraction (BI-2536 [16]; 1 nM) was 0.897 ± 0.19. The surviving fraction (BI-2536 [16]; 5 nM) was 0.189 ± 0.011, the surviving fraction (BI-2536 [16]; 10 nM) was 0.191 ± 0.01 and the surviving fraction (BI-2536 [16]; 50 nM) was 0.291 ± 0.04. For the same test system, the surviving fraction (BI-2536 [16]; 100 nM) was 0.24 ± 0.018, the surviving fraction (BI-2536 [16]; 500 nM) was 0.114 ± 0.0061 and the surviving fraction (BI-2536 [16]; 1000 nM) was 0.07 ± 0.0053.
